Tests used:
Type in all cases: in vivo
[1] = system: rice (Oryza sativa); experiment: Test C flooded paddy test: rice; conditions: scale 0 to 100 (0 no effect, 100 complete control)
In short: (§1)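 Plants at 2-leaf stage in pots flooded 3 cm above soil; compounds applied directly into the paddy water, depth maintained. Visual rating against controls after 13–15 days in greenhouse, scale 0 (no effect) to 100 (complete control).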

[2] = system: sedge, umbrella (small-flower umbrella sedge, Cyperus difformis); experiment: Test C flooded paddy test: sedge, umbrella; conditions: scale 0 to 100 (0 no effect, 100 complete control)
In short: as §1

[3] = system: crabgrass, large (large crabgrass, Digitaria sanguinalis); experiment: Test A pre-/postemergence: crabgrass, large
In short: (§2)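 Compounds, formulated with surfactant in non-phytotoxic solvent, were applied as a directed soil spray preemergence and as postemergence sprays to 2–10 cm, one- to two-leaf seedlings grown in loam soil blended with sand; visual injury, 0–100, assessed ~10 days post-treatment against untreated controls.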

[4] = system: wheat (Triticum aestivum); experiment: Test A pre-/postemergence: wheat
In short: as §2

[5] = system: corn (Zea mays); experiment: Test A pre-/postemergence: corn
In short: as §2

[6] = system: pigweed (Amaranthus retroflexus); experiment: Test A pre-/postemergence: pigweed
In short: as §2

[7] = system: ducksalad (Heteranthera limosa); experiment: Test C flooded paddy test: ducksalad; conditions: scale 0 to 100 (0 no effect, 100 complete control)
In short: as §1

[8] = system: velvetleaf (Abutilon theophrasti); experiment: Test A pre-/postemergence: velvetleaf
In short: as §2

[9] = system: barnyardgrass (Echinochloa crus-galli); experiment: Test A pre-/postemergence: barnyardgrass
In short: as §2

[10] = system: foxtail, giant (giant foxtail, Setaria faberii); experiment: Test A pre-/postemergence: foxtail, giant
In short: as §2

[11] = system: morningglory (Ipomoea spp.); experiment: Test A pre-/postemergence: morningglory
In short: as §2

[12] = system: barnyardgrass (Echinochloa crus-galli); experiment: Test C flooded paddy test: barnyardgrass; conditions: scale 0 to 100 (0 no effect, 100 complete control)
In short: as §1

[13] = Flood (flooded paddy test), 125 g ai/ha, visual rating after 13 to 15 days
[14] = Flood (flooded paddy test), 250 g ai/ha, visual rating after 13 to 15 days
[15] = Postemergence, 125 g ai/ha, 0 to 100 scale, 0 is no effect, 100 is complete control
[16] = Postemergence, 500 g ai/ha, visual rating on 0 to 100 scale (0 no effect, 100 complete control), approximately ten days
[17] = Preemergence, 125 g ai/ha, 0 to 100 scale (0 no effect, 100 complete control)
[18] = Preemergence, 500 g ai/ha, 0 to 100 scale, 0 is no effect, 100 is complete control
[19] = Postemergence, 1000 g ai/ha, visual rating on 0 to 100 scale (0 no effect, 100 complete control), approximately ten days
[20] = Preemergence, 1000 g ai/ha, 0 to 100 scale, 0 is no effect, 100 is complete control
[21] = Flood (flooded paddy test), 62 g ai/ha, visual rating after 13 to 15 days

Cc1nn(-c2ccc(C(F)(F)F)cc2)nc1Sc1cccc(C(F)(F)F)c1 [Compound 88]
Plant response rating, Rice [1, 13]: 0 | Plant response rating, Rice [1, 14]: 0 | Plant response rating, Rice ([1]; Flood, 31 g ai/ha): 0 | Plant response rating, Rice ([1]; Flood, 62 g ai/ha): 0 | Plant response rating, Sedge, Umbrella [2, 13]: 0 | Plant response rating, Sedge, Umbrella [2, 14]: 0 | Plant response rating, Sedge, Umbrella ([2]; Flood, 31 g ai/ha): 0 | Plant response rating, Sedge, Umbrella ([2]; Flood, 62 g ai/ha): 0 | Crabgrass, Large plant response rating [3, 15]: 30 | Crabgrass, Large plant response rating [3, 16]: 80 | Plant response rating, Crabgrass, Large [3, 17]: 0 | Plant response rating, Crabgrass, Large [3, 18]: 50 | Wheat plant response rating [4, 15]: 0 | Wheat plant response rating [4, 16]: 10 | Plant response rating, Wheat [4, 17]: 0 | Plant response rating, Wheat [4, 18]: 0 | Corn plant response rating [5, 15]: 0 | Corn plant response rating [5, 16]: 10 | Plant response rating, Corn [5, 17]: 0 | Plant response rating, Corn [5, 18]: 0 | Pigweed plant response rating [6, 15]: 80 | Pigweed plant response rating [6, 16]: 100 | Plant response rating, Pigweed [6, 17]: 0 | Plant response rating, Pigweed [6, 18]: 50 | Plant response rating, Ducksalad [7, 13]: 0 | Plant response rating, Ducksalad [7, 14]: 0 | Plant response rating, Ducksalad ([7]; Flood, 31 g ai/ha): 0 | Plant response rating, Ducksalad ([7]; Flood, 62 g ai/ha): 0 | Velvetleaf plant response rating [8, 15]: 10 | Velvetleaf plant response rating [8, 16]: 80 | Plant response rating, Velvetleaf [8, 17]: 0 | Plant response rating, Velvetleaf [8, 18]: 0 | Barnyardgrass plant response rating [9, 15]: 10 | Barnyardgrass plant response rating [9, 16]: 20 | Plant response rating, Barnyardgrass [9, 17]: 0 | Plant response rating, Barnyardgrass [9, 18]: 10 | Foxtail, Giant plant response rating [10, 15]: 10 | Foxtail, Giant plant response rating [10, 16]: 40 | Plant response rating, Foxtail, Giant [10, 17]: 0 | Plant response rating, Foxtail, Giant [10, 18]: 40 | Morningglory plant response rating [11, 15]: 10 | Morningglory plant response rating [11, 16]: 50 | Plant response rating, Morningglory [11, 17]: 0 | Plant response rating, Morningglory [11, 18]: 0 | Plant response rating, Barnyardgrass [12, 13]: 0 | Plant response rating, Barnyardgrass [12, 14]: 0 | Plant response rating, Barnyardgrass ([12]; Flood, 31 g ai/ha): 0 | Plant response rating, Barnyardgrass ([12]; Flood, 62 g ai/ha): 0

Cc1nn(-c2ccc(C(F)(F)F)cc2)nc1Cn1cnc(C(F)(F)F)n1 [Compound 132]
Plant response rating, Rice [1, 14]: 0 | Plant response rating, Rice ([1]; Flood, 62 g ai/ha): 0 | Plant response rating, Sedge, Umbrella [2, 14]: 65 | Plant response rating, Sedge, Umbrella ([2]; Flood, 62 g ai/ha): 0 | Crabgrass, Large plant response rating [3, 19]: 90 | Crabgrass, Large plant response rating [3, 20]: 100 | Wheat plant response rating [4, 19]: 30 | Wheat plant response rating [4, 20]: 0 | Corn plant response rating [5, 19]: 30 | Corn plant response rating [5, 20]: 0 | Pigweed plant response rating [6, 19]: 100 | Pigweed plant response rating [6, 20]: 100 | Plant response rating, Ducksalad [7, 14]: 20 | Plant response rating, Ducksalad ([7]; Flood, 62 g ai/ha): 0 | Velvetleaf plant response rating [8, 19]: 90 | Velvetleaf plant response rating [8, 20]: 60 | Barnyardgrass plant response rating [9, 19]: 80 | Barnyardgrass plant response rating [9, 20]: 90 | Foxtail, Giant plant response rating [10, 19]: 90 | Foxtail, Giant plant response rating [10, 20]: 100 | Morningglory plant response rating [11, 19]: 100 | Morningglory plant response rating [11, 20]: 60 | Plant response rating, Barnyardgrass [12, 14]: 0 | Plant response rating, Barnyardgrass ([12]; Flood, 62 g ai/ha): 0

Cc1nn(-c2ccc(C(F)(F)F)cc2)nc1Cn1nc(C(F)(F)F)cc1C [Compound 134]
Plant response rating, Rice [1, 14]: 0 | Plant response rating, Rice ([1]; Flood, 62 g ai/ha): 0 | Plant response rating, Sedge, Umbrella [2, 14]: 0 | Plant response rating, Sedge, Umbrella ([2]; Flood, 62 g ai/ha): 0 | Crabgrass, Large plant response rating [3, 19]: 90 | Plant response rating, Crabgrass, Large [3, 20]: 100 | Wheat plant response rating [4, 19]: 0 | Plant response rating, Wheat [4, 20]: 0 | Corn plant response rating [5, 19]: 20 | Plant response rating, Corn [5, 20]: 10 | Pigweed plant response rating [6, 19]: 100 | Plant response rating, Pigweed [6, 20]: 90 | Plant response rating, Ducksalad [7, 14]: 0 | Plant response rating, Ducksalad ([7]; Flood, 62 g ai/ha): 0 | Velvetleaf plant response rating [8, 19]: 50 | Plant response rating, Velvetleaf [8, 20]: 0 | Barnyardgrass plant response rating [9, 19]: 30 | Plant response rating, Barnyardgrass [9, 20]: 30 | Foxtail, Giant plant response rating [10, 19]: 50 | Plant response rating, Foxtail, Giant [10, 20]: 100 | Morningglory plant response rating [11, 19]: 100 | Plant response rating, Morningglory [11, 20]: 10 | Plant response rating, Barnyardgrass [12, 14]: 15 | Plant response rating, Barnyardgrass ([12]; Flood, 62 g ai/ha): 0

Cc1nn(-c2ccc(C(F)(F)F)cn2)nc1Oc1cccc(C(F)(F)F)c1 [Compound 109]
Plant response rating, Rice [1, 13]: 15 | Plant response rating, Rice [1, 14]: 25 | Plant response rating, Rice ([1]; Flood, 31 g ai/ha): 15 | Plant response rating, Rice ([1]; Flood, 62 g ai/ha): 15 | Plant response rating, Sedge, Umbrella [2, 13]: 85 | Plant response rating, Sedge, Umbrella [2, 14]: 85 | Plant response rating, Sedge, Umbrella ([2]; Flood, 31 g ai/ha): 38 | Plant response rating, Sedge, Umbrella ([2]; Flood, 62 g ai/ha): 63 | Crabgrass, Large plant response rating [3, 19]: 90 | Crabgrass, Large plant response rating [3, 20]: 100 | Wheat plant response rating [4, 19]: 50 | Wheat plant response rating [4, 20]: 20 | Corn plant response rating [5, 19]: 90 | Corn plant response rating [5, 20]: 40 | Pigweed plant response rating [6, 19]: 100 | Pigweed plant response rating [6, 20]: 100 | Plant response rating, Ducksalad [7, 13]: 60 | Plant response rating, Ducksalad [7, 14]: 80 | Plant response rating, Ducksalad ([7]; Flood, 31 g ai/ha): 0 | Plant response rating, Ducksalad ([7]; Flood, 62 g ai/ha): 20 | Velvetleaf plant response rating [8, 19]: 80 | Velvetleaf plant response rating [8, 20]: 30 | Barnyardgrass plant response rating [9, 19]: 90 | Barnyardgrass plant response rating [9, 20]: 100 | Foxtail, Giant plant response rating [10, 19]: 90 | Foxtail, Giant plant response rating [10, 20]: 100 | Morningglory plant response rating [11, 19]: 90 | Morningglory plant response rating [11, 20]: 50 | Plant response rating, Barnyardgrass [12, 13]: 40 | Plant response rating, Barnyardgrass [12, 14]: 75 | Plant response rating, Barnyardgrass ([12]; Flood, 31 g ai/ha): 0 | Plant response rating, Barnyardgrass ([12]; Flood, 62 g ai/ha): 20

Cc1nn(-c2ccc(C(F)(F)F)cc2)nc1Oc1cncc(C(F)(F)F)c1 [Compound 37]
Plant response rating, Rice [1, 21]: 10 | Plant response rating, Rice [1, 14]: 20 | Plant response rating, Sedge, Umbrella [2, 21]: 0 | Plant response rating, Sedge, Umbrella [2, 14]: 0 | Crabgrass, Large plant response rating [3, 15]: 20 | Crabgrass, Large plant response rating [3, 16]: 70 | Plant response rating, Crabgrass, Large [3, 17]: 90 | Plant response rating, Crabgrass, Large [3, 18]: 100 | Wheat plant response rating [4, 15]: 0 | Wheat plant response rating [4, 16]: 10 | Plant response rating, Wheat [4, 17]: 0 | Plant response rating, Wheat [4, 18]: 0 | Corn plant response rating [5, 15]: 10 | Corn plant response rating [5, 16]: 20 | Plant response rating, Corn [5, 17]: 0 | Pigweed plant response rating [6, 15]: 80 | Pigweed plant response rating [6, 16]: 100 | Plant response rating, Pigweed [6, 17]: 70 | Plant response rating, Pigweed [6, 18]: 100 | Plant response rating, Ducksalad [7, 21]: 0 | Plant response rating, Ducksalad [7, 14]: 70 | Velvetleaf plant response rating [8, 15]: 20 | Velvetleaf plant response rating [8, 16]: 50 | Plant response rating, Velvetleaf [8, 17]: 0 | Plant response rating, Velvetleaf [8, 18]: 10 | Barnyardgrass plant response rating [9, 15]: 10 | Barnyardgrass plant response rating [9, 16]: 20 | Plant response rating, Barnyardgrass [9, 17]: 30 | Plant response rating, Barnyardgrass [9, 18]: 90 | Foxtail, Giant plant response rating [10, 15]: 30 | Foxtail, Giant plant response rating [10, 16]: 80 | Plant response rating, Foxtail, Giant [10, 17]: 90 | Plant response rating, Foxtail, Giant [10, 18]: 100 | Morningglory plant response rating [11, 15]: 20 | Morningglory plant response rating [11, 16]: 90 | Plant response rating, Morningglory [11, 17]: 0 | Plant response rating, Morningglory [11, 18]: 20 | Plant response rating, Barnyardgrass [12, 21]: 10 | Plant response rating, Barnyardgrass [12, 14]: 35
